In patent US8841125B2, “Cancer tissue-derived cell mass and a process for preparing same” (Renaissance Energy Investment Co., Ltd., priority 2009, dated 2014):

Test system: cell mass derived from the cancer tissue (surgical specimens of human colon cancer, Example 2)
Experiment: Drug sensitivity test with cell masses embedded in collagen gel
Type: cell-based
Settings: 5-FU at 0.01, 0.1, 1, 10 and 100 μg/ml; day 8 vs day 0 of culture; FIG. 4
Protocol: Using 5-FU which is known to inhibit DNA synthesis by binding to a thymidylic acid synthetase involved in the metabolism process necessary for DNA synthesis, a drug sensitivity test on a sample of Example 2 was carried out. The test was carried out by embedding the cell masses (×10 each) derived from the cancer tissue in a collagen gel (CellMatrix type IA (Nitta Gelatin Inc.):5×DMEM (Gibco; 12100-038):buffer solution for gel reconstruction (50 mM NaOH, 260 mM NaHCO3, 200 mM HEPES)=7:2:1), and culturing in 1 cc of STEMPRO serum-free medium (Gibco) for human ES cells in an incubator under the culture conditions of 37° C. and 5% CO2. In addition, 5-FU was applied at a concentration of 0.01 μg/ml, 0.1 μg/ml, 1 μg/ml, 10 μg/ml, and 100 μg/ml, and the states of the cells on days 0 and 8 after culture were compared for evaluation. An increasing rate of the area of the cell mass derived from the cancer tissue was expressed relative to 1 of an increasing rate of the area of the cell mass in the culture without application of a drug.

SMILES: O=c1[nH]cc(F)c(=O)[nH]1 [5-FU]
- proliferation of the cancer cell (increasing rate of the area of the cell mass relative to 1 for culture without drug): concentration-dependently suppressed
